Reference: patent US20110104301A1, “METHODS OF REDUCING PAIN AND INFLAMMATION” (Georgetown University, A Congressionally Chartered …, priority 2008, published 2011)

Tests used:
[1] = target: TRPV1 (Rattus norvegicus, UniProt O35433); experiment: Voltage-clamp of TRPV1-expressing Xenopus oocytes (capsaicin, protons, heat); assay type: cell-based; conditions: PDBu 200 nM, 3 minutes
Protocol: Oocyte electrophysiology. […] Oocytes were placed in a Perspex chamber and continuously superfused (5 ml min-1) with Ca2+-free solution containing (in mM): 100 NaCl, 2.5 KCl, 5 HEPES, 1 MgCl2 and titrated to pH 7.3 with ˜5 mM NaOH. For solutions <pH 6.0, HEPES was replaced with either 5 mM MES or 5 mM sodium citrate. Oocytes were routinely voltage-clamped at −60 mV at 22-23° C. For heat activation, bath temperature was raised from ˜22-50° C. over ˜100 s using an in-line solution heater (Warner Instruments). The temperature was continuously monitored with a probe placed within 2 mm of the oocyte. The temperature-activation threshold was defined as a 20% increase in current above baseline.
Volatile general anesthetics. Saturated stock solutions of volatile general anesthetics (VGAs) were prepared in gas-tight bottles by dissolving excess anesthetic agents in bath solutions and stirring vigorously overnight. From these stock solutions fresh dilutions were made up every 40-60 minutes. Concentrations of volatile anesthetics in the bath solutions were verified using a modified head-space gas chromatography method. The gas chromatograph (Carlo Erba, Milan, Italy) was equipped with a flame ionization detector (FID) and mass spectrometer. The carrier gas was hydrogen (60 kPa column head pressure) and the fused silica capillary column, coated with polysiloxane SE-30, was 25 m×0.25 mm. Injector temperature was 250° C., FID temperature was 300° C. and the oven was maintained at 90° C. Standards were prepared from a mixture of halothane, isoflurane, and sevoflurane dissolved in acetonitrile with enflurane as an internal standard.

[2] = target: T1, mutant S502A/S800A TRPV1 (Rattus norvegicus, UniProt O35433, S502A/S800A); experiment: Heat activation in oocytes expressing mutant S502A/S800A TRPV1; assay type: cell-based
T1 construct: expressed in transfected cells; host or cells: Xenopus laevis oocytes (cRNA injection)
Protocol: Oocyte electrophysiology. […] Oocytes were placed in a Perspex chamber and continuously superfused (5 ml min-1) with Ca2+-free solution containing (in mM): 100 NaCl, 2.5 KCl, 5 HEPES, 1 MgCl2 and titrated to pH 7.3 with 5 mM NaOH. For solutions <pH 6.0, HEPES was replaced with either 5 mM MES or 5 mM sodium citrate. Oocytes were routinely voltage-clamped at -60 mV at 22-23° C.

Sequence of TRPV1 (O35433 whole entry, the tested form may be a part): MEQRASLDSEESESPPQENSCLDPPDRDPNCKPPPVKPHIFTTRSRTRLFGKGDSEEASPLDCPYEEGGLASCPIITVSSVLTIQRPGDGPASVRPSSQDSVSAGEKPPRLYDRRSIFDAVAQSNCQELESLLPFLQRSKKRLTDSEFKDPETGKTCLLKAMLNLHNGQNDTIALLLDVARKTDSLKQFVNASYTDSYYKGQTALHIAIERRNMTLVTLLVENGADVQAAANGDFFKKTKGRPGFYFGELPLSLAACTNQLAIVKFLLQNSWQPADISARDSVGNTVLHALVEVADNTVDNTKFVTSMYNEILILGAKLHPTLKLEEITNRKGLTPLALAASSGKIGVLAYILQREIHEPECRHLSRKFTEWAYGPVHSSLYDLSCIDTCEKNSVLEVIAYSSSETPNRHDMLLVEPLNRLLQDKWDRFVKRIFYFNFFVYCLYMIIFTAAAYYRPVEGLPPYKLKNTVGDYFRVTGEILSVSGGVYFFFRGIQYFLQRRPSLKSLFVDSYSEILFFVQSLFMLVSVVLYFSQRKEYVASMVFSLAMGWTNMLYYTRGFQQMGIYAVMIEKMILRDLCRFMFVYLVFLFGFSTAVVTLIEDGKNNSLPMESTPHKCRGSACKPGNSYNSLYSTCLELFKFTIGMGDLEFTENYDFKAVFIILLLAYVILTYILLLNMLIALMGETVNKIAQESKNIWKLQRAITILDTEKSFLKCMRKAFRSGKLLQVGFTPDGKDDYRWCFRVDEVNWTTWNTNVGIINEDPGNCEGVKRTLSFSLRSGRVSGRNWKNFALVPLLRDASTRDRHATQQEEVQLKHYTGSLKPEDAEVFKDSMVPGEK
T1 sequence (O35433 whole entry S502A/S800A): as the sequence (O35433 whole entry, the tested form may be a part) above, with S502A, S800A counted along it

CCCC(=O)O[C@@H]1[C@@H](C)[C@@]2(O)[C@@H](C=C(CO)C[C@]3(O)C(=O)C(C)=C[C@@H]23)[C@@H]2C(C)(C)[C@]12OC(=O)CCC [PDBu, phorbol 12, 13 dibutyrate]
Temperature threshold of TRPV1 heat activation, PDBu alone [1]: 39.3±2.3 °C
Effect of PDBu in oocytes expressing mutant TRPV1 [2]: did not produce a significant effect
